Experimental data published in PubChem BioAssay (NCI).
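Test compounds were applied to cells in 96-well plates for 48 hours at 5 doses. GI50 is the concentration that inhibits growth by half. At the TGI there is no net growth.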

Assays:
Experiment in all cases: NCI tumour cell line growth inhibition, 48 h
[1] = tested on: DMS 273 small cell lung
[2] = tested on: EKVX NSCLC
[3] = tested on: P388 leukemia
[4] = tested on: RXF 393 renal
[5] = tested on: DMS 114 small cell lung
[6] = tested on: P388/ADR leukemia
[7] = tested on: KM20L2 colon
[8] = tested on: HCC-2998 colon
[9] = tested on: COLO 205 colon
[10] = tested on: HOP-18 NSCLC
[11] = tested on: NCI/ADR-RES ovarian
[12] = tested on: SF-295 CNS
[13] = tested on: MCF7 breast
[14] = tested on: SN12K1 renal
[15] = tested on: UO-31 renal
[16] = tested on: MDA-N
[17] = tested on: ACHN renal
[18] = tested on: TK-10 renal
[19] = tested on: LXFL 529 NSCLC

Structure (SMILES) | TGI [1] | TGI [2] | TGI [3] | TGI [4] | TGI [5] | TGI [6] | TGI [7] | TGI [8] | TGI [9] | TGI [10] | TGI [11] | TGI [12] | TGI [13] | TGI [14] | TGI [15] | TGI [16] | TGI [17] | TGI [18] | TGI [19] | GI50 [3]
O=C(NC(Cc1ccc(I)cc1)C(=O)O)c1ccc(Br)cc1 (stereo unspecified) | > 100 µM | 31 µM | > 100 µM | > 100 µM | > 100 µM | > 31.6 µM | > 100 µM | > 100 µM | > 100 µM | > 100 µM | > 100 µM | > 100 µM | > 100 µM | > 100 µM | > 100 µM |  |  |  |  | 
N=C(N)c1ccc(N=Nc2c(O)ccc3c2[nH]c2ccccc23)cc1 |  | > 100 µM |  | > 100 µM |  |  |  |  | > 100 µM |  | > 100 µM | > 84.4 µM |  |  | > 90.9 µM | 50.6 µM | 86.4 µM | > 95.3 µM |  | 
COc1ccc2nc3ccccc3c(NCCCCCCN(CCCl)CCCl)c2c1 | 0.206 µM | 4.22 µM |  |  |  |  | 2.07 µM |  | 0.107 µM |  |  | 1.01 µM | 0.157 µM |  | 0.513 µM | 0.656 µM |  | 23.8 µM | 1.72 µM | 
COC(=O)C1=C(C(=O)OC)SC2(S1)C1=C(CCCC1)SC(C(=O)OC)=C2C(=O)OC |  | 26.6 µM |  | 6.91 µM |  |  |  | 28.2 µM | 23.2 µM |  | 40.9 µM | 27.8 µM | 8.43 µM |  | 10.9 µM | 15.2 µM | 18.4 µM | 24.7 µM |  | 
COc1ccc(/C(Cl)=C(\C=O)c2ccc(F)cc2)cc1OC | 97.3 µM | 65.4 µM |  |  | 46.2 µM |  | 34.1 µM |  | 36.8 µM | 44.2 µM |  | 63.2 µM |  |  | 61.1 µM |  | 58.6 µM | > 100 µM | 76.7 µM | 
COc1cc(Nc2c3ccccc3nc3ccccc23)ccc1NS(C)(=O)=O |  | 23.1 µM |  |  |  |  | 17.1 µM | 28.8 µM | 16.1 µM | 26.3 µM |  | 15.2 µM |  |  | 16.9 µM |  | 14.8 µM |  | 35 µM | 
Nc1ccc2[nH]c3c(-c4ccccc4)nccc3c2c1 | > 100 µM | > 100 µM | 46.5 µM | > 96.5 µM | > 100 µM | > 100 µM | > 100 µM | 96.8 µM | > 100 µM | > 100 µM | > 100 µM | > 100 µM | > 100 µM | > 100 µM | > 100 µM |  |  |  |  | 
Cc1[nH]c(=O)[nH]c(=O)c1/C=C/C(=O)O | > 1000 µM | > 1000 µM | > 1000 µM | > 1000 µM | > 1000 µM | > 1000 µM | > 1000 µM | > 1000 µM | > 1000 µM | > 1000 µM | > 1000 µM | > 1000 µM | > 1000 µM | > 1000 µM | > 1000 µM |  |  |  |  | > 1000 µM
